According to US8883963B2 (Cadila Healthcare Limited, priority 2007, dated 2014):
Starred links: 1 amine or outer side, 2 acyl side, 3 side chain; linkers in the order of their positions; H or OH if unused. Non-standard residues stand in square brackets, D forms with d. Residues, ends and D or L forms follow the SMILES beside them. ξ: configuration not given here. *: point of attachment. X3 = CCc1cc(OC)ccc1-c1ccc(CC(N*)C(=S)NC(CCCc2ccccc2)C(N)=O)cc1; Leu(5,5,5,5',5',5'-F6) = N[C@@H](CC(C(F)(F)F)C(F)(F)F)C(=O)O; X4 = CCc1cc(OC)ccc1-c1ccc(CC(CNC(CCCc2ccccc2F)C(N)=O)N*)cc1; ξBip(2'-Et-4'-OMe) = CCc1cc(OC)ccc1-c1ccc(CC(N)C(=O)O)cc1; ξNva(5-(4-Cl-2-MePh)) = Cc1cc(Cl)ccc1CCCC(N)C(=O)O; ξNva(5-(3-Cl-Ph)) = NC(CCCc1cccc(Cl)c1)C(=O)O; ξαMePhe(2-F) = CC(N)(Cc1ccccc1F)C(=O)O; X2 = O=C(C(CCCc1ccccc1Cl)N[*:1])[*:2]; aThr = C[C@H](O)[C@H](N)C(=O)O; Ac3c = NC1(C(=O)O)CC1; Aib = CC(C)(N)C(=O)O

What was measured:
[1] = target: T1, human glucagon receptor (Homo sapiens, UniProt P47871); assay: In vitro human glucagon antagonist activity (inhibition of cAMP production) in CHO/human glucagon R cells; format: cell-based; details: with saturated concentration of glucagon peptide
T1 construct: The full-length cDNA was cloned in pcDNA3.1 (Invitrogen); expressed in transfected cells
T1 sequence (P47871 26-477): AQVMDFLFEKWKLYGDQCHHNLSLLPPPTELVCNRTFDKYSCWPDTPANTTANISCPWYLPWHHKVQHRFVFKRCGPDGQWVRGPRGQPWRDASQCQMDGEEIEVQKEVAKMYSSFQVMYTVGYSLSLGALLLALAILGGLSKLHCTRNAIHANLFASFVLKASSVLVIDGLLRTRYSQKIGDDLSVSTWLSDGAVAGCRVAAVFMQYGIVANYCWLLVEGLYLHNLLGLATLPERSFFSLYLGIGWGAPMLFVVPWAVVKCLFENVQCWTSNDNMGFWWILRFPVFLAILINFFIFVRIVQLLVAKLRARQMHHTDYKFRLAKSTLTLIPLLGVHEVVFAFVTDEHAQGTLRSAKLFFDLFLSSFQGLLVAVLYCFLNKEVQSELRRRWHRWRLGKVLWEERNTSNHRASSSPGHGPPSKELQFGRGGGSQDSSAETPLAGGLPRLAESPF

[2] = Stability in liver microsomes; format: in vitro ADME; details: 2 μM peptidomimetic, human liver microsomes, 37° C.; for half-life at 2 μM: pH 7.8, read-out: half-life (t1/2) when incubated with liver microsomes
Method: (§1) Reactions were terminated by the addition of TFA/H2O (15 mL, 10% (v/v)). […] The column was equilibrated with TFA/H20, at a flow rate of 1 mL/min.

[3] = Stability in simulated gastric fluid; format: in vitro ADME; details: 2 μM peptidomimetic, simulated gastric fluid pH 1.5, 37° C.; for half-life at 2 μM: read-out: half-life (t1/2) when incubated with simulated gastric fluid
Method: as §1

[4] = target: DPP IV (Homo sapiens, UniProt P27487); assay: Stability against DPP IV enzyme; format: in vitro ADME; details: 37° C.; for % degradation of peptidomimetics in 24 h when incubated with DPP-IV enzyme: 2 μM peptidomimetic; for half-life at 2 μM: DPP IV enzyme, pH 7.8, 2 μM peptidomimetic, read-out: half-life (t1/2) when incubated with DPP-IV enzyme
Chain of DPP IV (P27487 whole entry, species assumed): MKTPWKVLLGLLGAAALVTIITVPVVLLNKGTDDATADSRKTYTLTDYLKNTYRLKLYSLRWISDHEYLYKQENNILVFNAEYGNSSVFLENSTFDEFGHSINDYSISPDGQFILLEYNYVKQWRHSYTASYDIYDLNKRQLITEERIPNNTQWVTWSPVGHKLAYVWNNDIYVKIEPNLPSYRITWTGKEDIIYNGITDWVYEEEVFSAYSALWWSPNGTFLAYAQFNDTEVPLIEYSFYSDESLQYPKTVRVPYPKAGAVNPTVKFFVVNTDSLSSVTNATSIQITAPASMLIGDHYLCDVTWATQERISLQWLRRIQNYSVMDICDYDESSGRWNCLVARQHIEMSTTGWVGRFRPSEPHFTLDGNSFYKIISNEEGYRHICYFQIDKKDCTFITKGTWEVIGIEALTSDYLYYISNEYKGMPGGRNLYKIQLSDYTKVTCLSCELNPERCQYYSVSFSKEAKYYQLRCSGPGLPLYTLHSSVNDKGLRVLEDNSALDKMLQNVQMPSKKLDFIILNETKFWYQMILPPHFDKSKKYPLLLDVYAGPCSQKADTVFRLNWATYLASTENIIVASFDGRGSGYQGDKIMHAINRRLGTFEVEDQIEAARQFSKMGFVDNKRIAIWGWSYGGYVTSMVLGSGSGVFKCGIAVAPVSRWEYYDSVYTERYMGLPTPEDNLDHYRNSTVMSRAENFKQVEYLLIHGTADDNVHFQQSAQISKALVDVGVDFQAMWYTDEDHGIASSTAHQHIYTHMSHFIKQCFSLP
Method: as §1

[5] = Stability in human plasma; format: in vitro ADME; details: 2 μM peptidomimetic, pooled human plasma, 37° C.; for half-life at 2 μM: pH 7.8, read-out: half-life (t1/2) when incubated with human plasma
Method: as §1

[6] = Stability in simulated intestinal fluid; format: in vitro ADME; details: 2 μM peptidomimetic, simulated intestinal fluid pH 7.5, 37° C.; for half-life at 2 μM: read-out: half-life (t1/2) when incubated with simulated intestinal fluid
Method: as §1

Row | Compound | Human Glucagon receptor antagonistic activity shown as inhibition of cAMP production of Glucagon peptide ([1]; 1 nM test compound) | Human Glucagon receptor antagonistic activity shown as inhibition of cAMP production of Glucagon peptide ([1]; 10 nM test compound) | Human Glucagon receptor antagonistic activity shown as inhibition of cAMP production of Glucagon peptide ([1]; 100 nM test compound) | Human Glucagon receptor antagonistic activity shown as inhibition of cAMP production of Glucagon peptide ([1]; 1 μM test compound) | Human Glucagon receptor antagonistic activity shown as inhibition of cAMP production of Glucagon peptide ([1]; 10 μM test compound) | % degradation of peptidomimetics in 24 h when incubated with liver microsomes [2] | half-life at 2 μM [2] | % degradation of peptidomimetics in 24 h when incubated with simulated gastric fluid [3] | half-life at 2 μM [3] | % degradation of peptidomimetics in 24 h when incubated with DPP-IV enzyme [4] | half-life (t1/2) when incubated with human plasma [5] | % degradation of peptidomimetics in 24 h when incubated with human plasma [5] | % degradation of peptidomimetics in 24 h when incubated with simulated intestinal fluid [6] | half-life at 2 μM [6] | half-life at 2 μM [4] | half-life at 2 μM [5] | half-life (t1/2) when incubated with liver microsomes [2]
1 | CCc1cc(OC)ccc1-c1ccc(CC(NC(=O)[C@H](CC(=O)O)NC(=O)[C@H](CO)NC(=O)[C@@H](NC(=O)C(C)(Cc2ccccc2F)NC(=O)[C@@H](NC(=O)CNC(=O)C(CCC#N)NC(=O)C(C)(C)NC(=O)[C@H](Cc2c[nH]cn2)NC(=O)OC)[C@@H](C)O)[C@@H](C)O)C(=O)NC(CCCc2ccccc2F)C(N)=O)cc1 (single isomer, unassigned) [compound 208] | 5 ± 0.04 pmol/ml/μg prt | 3 ± 0.15 pmol/ml/μg prt | 1 ± 0.15 pmol/ml/μg prt | 0 pmol/ml/μg prt | 0 pmol/ml/μg prt | 100% | 30 min | 100% | 30 min | 76% | (9) h | 78% | 100% | 30 min | – | – | –
2 | CCc1cc(OC)ccc1-c1ccc(CC(CNC(CCCc2ccccc2F)C(N)=O)NC(=O)[C@H](CC(=O)O)NC(=O)[C@H](CO)NC(=O)[C@@H](NC(=O)C(C)(Cc2ccccc2F)NC(=O)[C@@H](NC(=O)CNC(=O)[C@H](CC(C(F)(F)F)C(F)(F)F)NC(=O)C(C)(C)NC(=O)[C@@H](N)Cc2c[nH]cn2)[C@H](C)O)[C@H](C)O)cc1 (stereo partly drawn) [compound 214] (H-H[Aib][Leu(5,5,5,5',5',5'-F6)]G[aThr][ξαMePhe(2-F)][aThr]SD-X4) | – | – | – | – | – | 100% | 30 min | 100% | 30 min | 76% | (9) h | 78% | 100% | 30 min | – | – | –
3 | CCc1cc(OC)ccc1-c1ccc(CC(NC(=O)[C@H](CC(=O)O)NC(=O)[C@H](CO)NC(=O)[C@@H](NC(=O)C(C)(Cc2ccccc2F)NC(=O)[C@@H](NC(=O)CNC(=O)[C@H](CC(C(F)(F)F)C(F)(F)F)NC(=O)C(C)(C)NC(=O)[C@@H](N)Cc2c[nH]cn2)[C@@H](C)O)[C@@H](C)O)C(=O)NC(CCCc2ccccc2)C(N)=O)cc1 (stereo partly drawn) [compound 234] | – | – | – | – | – | 100% | 30 min | 100% | 30 min | 72% | (9) h | 70% | 100% | 30 min | – | – | –
4 | CCc1cc(OC)ccc1-c1ccc(CC(CNC(CCCc2ccccc2)C(N)=O)NC[C@H](CC(=O)O)NC(=O)[C@H](CO)NC(=O)[C@@H](NC(=O)C(C)(Cc2ccccc2F)NC(=O)[C@@H](NC(=O)CNC(=O)[C@H](CCC(N)=O)NC(=O)C(C)(C)NC(=O)[C@@H](N)Cc2c[nH]cn2)[C@H](C)O)[C@H](C)O)cc1 (single isomer, unassigned) [compound 201] | – | – | – | – | – | 84% | 120 min | 43% | 240 min | 00% | – | 00% | 00% | > 1440 min | > 1440 min | > 1440 min | –
5 | CCc1cc(OC)ccc1-c1ccc(CC(NC(=O)[C@H](CC(=O)O)NC(=O)[C@H](CO)NC(=O)[C@@H](NC(=O)[C@H](Cc2ccccc2)NC(=O)[C@@H](NC(=O)CNC(=O)[C@H](CCC(N)=O)NC(=O)[C@H](CO)NC(=O)[C@@H](N)Cc2c[nH]cn2)[C@@H](C)O)[C@@H](C)O)C(=O)NC(CCCc2ccc(Cl)cc2C)C(N)=O)cc1 (stereo partly drawn) [compound 8] (H-HSQGTFTSD[ξBip(2'-Et-4'-OMe)][ξNva(5-(4-Cl-2-MePh))]-NH2) | – | – | – | – | – | 35% | – | 00% | > 1440 min | 00% | – | 00% | 00% | > 1440 min | > 1440 min | > 1440 min | (5) h
6 | CCc1cc(OC)ccc1-c1ccc(CC(NC(=O)[C@H](CC(=O)O)NC(=O)[C@H](CO)NC(=O)[C@@H](NC(=O)[C@H](Cc2ccccc2)NC(=O)[C@@H](NC(=O)CNC(=O)[C@H](CCC(N)=O)NC(=O)C2(NC(=O)[C@@H](N)Cc3c[nH]cn3)CC2)[C@@H](C)O)[C@@H](C)O)C(=O)NC(CCCc2ccccc2Cl)C(N)=O)cc1 (stereo partly drawn) [compound 74] (H-H[Ac3c]QGTFTSD[ξBip(2'-Et-4'-OMe)][X2]-NH2) | – | – | – | – | – | 100% | 30 min | 100% | 30 min | 76% | (9) h | 78% | 100% | 30 min | – | – | –
7 | CCc1cc(OC)ccc1-c1ccc(CC(NC(=O)[C@H](CC(=O)O)NC(=O)[C@H](CO)NC(=O)[C@@H](NC(=O)C(C)(Cc2ccccc2F)NC(=O)[C@@H](NC(=O)CNC(=O)[C@H](CC(C(F)(F)F)C(F)(F)F)NC(=O)C(C)(C)NC(=O)[C@@H](N)Cc2c[nH]cn2)[C@@H](C)O)[C@@H](C)O)C(=O)NC(CCCc2cccc(Cl)c2)C(N)=O)cc1 (stereo partly drawn) [compound 236] (H-H[Aib][Leu(5,5,5,5',5',5'-F6)]GT[ξαMePhe(2-F)]TSD[ξBip(2'-Et-4'-OMe)][ξNva(5-(3-Cl-Ph))]-NH2) | – | – | – | – | – | 35% | – | 00% | > 1440 min | 00% | – | 00% | 00% | > 1440 min | > 1440 min | > 1440 min | (5) h
8 | CCc1cc(OC)ccc1-c1ccc(CC(NC(=O)[C@H](CC(=O)O)NC(=O)[C@H](CO)NC(=O)[C@@H](NC(=O)C(C)(Cc2ccccc2F)NC(=O)[C@@H](NC(=O)CNC(=O)[C@H](CC(C(F)(F)F)C(F)(F)F)NC(=O)C(C)(C)NC(=O)[C@@H](N)Cc2c[nH]cn2)[C@H](C)O)[C@H](C)O)C(=S)NC(CCCc2ccccc2)C(N)=O)cc1 (stereo partly drawn) [compound 219] (H-H[Aib][Leu(5,5,5,5',5',5'-F6)]G[aThr][ξαMePhe(2-F)][aThr]SD-X3) | – | – | – | – | – | 33% | – | 00% | > 1440 min | 00% | – | 00% | 00% | > 1440 min | > 1440 min | > 1440 min | (5) h
